From patent US8637525B2, “Compounds for the reduction of beta-amyloid production” (Bristol-Myers Squibb Company, priority 2009, dated 2014) come the findings set out here.

SMILES strings stand for the structures. Counter-ions that a name gives are not always drawn.

In the first experiment the test system is Aβ1-42 production. Kind of experiment: Cellular assay for inhibition of Aβ1-42 production (H4 APP751 SWE clone 8.20). To be noted: 19 h, H4 APP751 SWE clone 8.20 cells, 19 h incubation; class symbols; read-out: Activity Rating (Aβ42 cellular IC50). It is filed as cell-based. As for the experimental part:
Cellular Assays for Inhibition of Aβ1-40 and Aβ1-42 Production
H4 cells stably transfected with APP751 containing the Swedish mutation (H4 APP751 SWE clone 8.20, developed at BMS) were maintained in log phase through twice weekly passage at a 1:20 split. […] Following incubation for 19 h in 5% CO2 at 37° C., plates were briefly centrifuged (1000 rpm, 5 min). A 10 μl aliquot from each well was transferred to a second assay plate (Costar 3709) for Aβ40 measurements. Antibody cocktails were freshly prepared by dilution into 40 mM Tris-HCl (pH 7.4) with 0.2% BSA and added to assay plates. For Aβ42 measurements, antibodies specific for the Aβ42 neoepitope (565, developed at BMS; conjugated to the Wallac reagent (Perkin Elmer)) and the N-terminal sequence of Aβ peptide (26D6, developed at SIBIA; conjugated to APC (Perkin Elmer)) were mixed and 20 μl of the mixture was added to each well of the incubated cell plate yielding a final concentration of 0.8 ng/well 565 and 75 ng/well 26D6. For the Aβ40 measurements, antibodies specific for the Aβ40 neoepitope (TSD, developed at BMS; conjugated to the Wallac reagent (Perkin Elmer)) and 26D6 as described above were mixed and 20 μl of the mixture was added to the 10 μl aliquots which had been removed previously from the cell plate yielding a final concentration of 1.6 ng/well TSD and 17.5 ng/well 26D6. Assay plates containing antibodies were sealed with aluminum foil and incubated overnight at 4° C. Signal was determined using a Viewlux counter (Perkin Elmer) and IC50 values determined using curve fitting in CurveMaster (Excel Fit based).
In general, IC50 refers to the concentration needed to halve the response being measured. For the compound `CCNc1nc(Nc2ccc(-n3ncnc3C)c(F)c2)nc2c1COCC2c1ccc(F)cc1` (racemic) [Example 59, N4-ethyl-N2-(3-fluoro-4-(5-methyl-1H-1,2,4-triazol-1-yl)phenyl)-8-(4-fluorophenyl)-7,8-dihydro-5H-pyrano[4,3-d]pyrimidine-2,4-diamine], the IC50 was in the range of 0.01 to 0.1 µM.
Same read-out and setting: under `COc1cc(Nc2nc3c(c(N4CCC(C(F)(F)F)C4)n2)CCC3c2ccc(F)cc2)ccc1-n1cnc(Cl)c1` (stereo not shown) [Example 41A, N-(4-(4-chloro-1H-imidazol-1-yl)-3-methoxyphenyl)-7-(4-fluorophenyl)-4-(3-(trifluoromethyl)pyrrolidin-1-yl)-6,7-dihydro-5H-cyclopenta[d]pyrimidin-2-amine] stands 0.01 to 0.1 µM; under `CNc1nc(Nc2ccc(-n3cnc(Cl)c3)c(OC)c2)nc2c1CCC2c1ccc(F)cc1` (single isomer, unassigned) [Example 11B, N^2-(4-(4-Chloro-1H-imidazol-1-yl)-3-methoxyphenyl)-7-(4-fluorophenyl)-N^4-methyl-6,7-dihydro-5H-cyclopenta[d]pyrimidine-2,4-diamine], 0.0015 to 0.0099 µM.
As to `COc1cc(Nc2nc3c(c(N4CC(F)(F)C4)n2)CNCC3c2ccc(F)cc2)ccc1-n1cnc(Cl)c1` (stereo not shown) [Example 162, N-(4-(4-chloro-1H-imidazol-1-yl)-3-methoxyphenyl)-4-(3,3-difluoroazetidin-1-yl)-8-(4-fluorophenyl)-5,6,7,8-tetrahydropyrido[4,3-d]pyrimidin-2-amine], the IC50 lay within 0.01 to 0.1 µM.
Turning to `CCNc1nc(Nc2ccc(-n3cnc(Cl)c3)c(OC)c2)nc2c1CN(C(=O)C1CC1)CC2c1ccccc1` (stereo not shown) [Example 132, (2-(4-(4-chloro-1H-imidazol-1-yl)-3-methoxyphenylamino)-4-(ethylamino)-8-phenyl-7,8-dihydropyrido[4,3-d]pyrimidin-6(5H)-yl)(cyclopropyl)methanone], the IC50 lay within 0.01 to 0.1 µM.
In the case of `CNc1nc(Nc2ccc(-n3cnc(Cl)c3)c(OC)c2)nc2c1CN(S(C)(=O)=O)CC2c1ccccc1` (racemic) [Example 129, N2-(4-(4-chloro-1H-imidazol-1-yl)-3-methoxyphenyl)-N4-methyl-6-(methylsulfonyl)-8-phenyl-5,6,7,8-tetrahydropyrido[4,3-d]pyrimidine-2,4-diamine], the IC50 was in the range of 0.01 to 0.1 µM.
As to `COc1cc(Nc2nc3c(c(N4CC(F)(F)C4)n2)COCC3c2ccc(F)c(F)c2)ccc1-n1cnc(Cl)c1` (racemic) [Example 114, N-(4-(4-chloro-1H-imidazol-1-yl)-3-methoxyphenyl)-4-(3,3-difluoroazetidin-1-yl)-8-(3,4-difluorophenyl)-7,8-dihydro-5H-pyrano[4,3-d]pyrimidin-2-amine, TFA], the IC50 lay within 0.0015 to 0.0099 µM.

Staying with this experiment, now noted: 19 h, H4 APP751 SWE clone 8.20 cells, 19 h incubation; read-out: Activity Rating (Aβ42 cellular IC50), numeric value.
For the compound `CCNc1nc(Nc2ccc(-n3ncnc3C)c(F)c2)nc2c1CN(CC(F)F)CC2c1ccccc1` (stereo not shown) [Example 194B, 6-(2,2-difluoroethyl)-N4-ethyl-N2-(3-fluoro-4-(5-methyl-1H-1,2,4-triazol-1-yl)phenyl)-8-phenyl-5,6,7,8-tetrahydropyrido[4,3-d]pyrimidine-2,4-diamine], the IC50 was 0.175 µM.
On to `CCNc1nc(Nc2ccc(-n3cnc(Cl)c3)c(OC)c2)nc2c1CN(CC(F)(F)F)CC2c1ccccc1` (stereo not shown) [Example 196B], for which the IC50 was 0.054 µM.

Still in this experiment, the particulars now being: H4 APP751 SWE clone 8.20 cells, 19 h incubation; class symbols; read-out: Activity Rating (Aβ42 cellular IC50).
On to `CCC1CCCN1c1nc(Nc2ccc(-n3cnc(Cl)c3)c(OC)c2)nc2c1CCC2c1ccc(F)cc1` (single isomer, unassigned) [Example 24A, N-(4-(4-chloro-1H-imidazol-1-yl)-3-methoxyphenyl)-4-(2-ethylpyrrolidin-1-yl)-7-(4-fluorophenyl)-6,7-dihydro-5H-cyclopenta[d]pyrimidin-2-amine], for which the IC50 is 0.01 to 0.1 µM.
For `COc1cc(Nc2nc3c(c(N(C)C)n2)CCC3c2ccccc2)ccc1-n1cnc(Cl)c1` (single isomer, unassigned) [Example 4B, N^2-(4-(4-chloro-1H-imidazol-1-yl)-3-methoxyphenyl)-N^4,N^4-dimethyl-7-phenyl-6,7-dihydro-5H-cyclopenta[d]pyrimidine-2,4-diamine], the IC50 lay in the range of 0.01 to 0.1 µM.
In the case of `COc1cc(Nc2nc3c(c(N(C)C)n2)CCC3c2ccc(F)c(F)c2)ccc1-n1cnc(Cl)c1` (single isomer, unassigned) [Example 95A, N^2-(4-(4-chloro-1H-imidazol-1-yl)-3-methoxyphenyl)-7-(3,4-difluorophenyl)-N^4,N^4-dimethyl-6,7-dihydro-5H-cyclopenta[d]pyrimidine-2,4-diamine], the half-inhibitory concentration (IC50) lay in the range of 0.0015 to 0.0099 µM.
On to `COc1cc(Nc2nc3c(c(N4CC(Cl)C4)n2)CCC3c2ccccc2)ccc1-n1cnc(Cl)c1` (stereo not shown) [Example 181A, N-(4-(4-chloro-1H-imidazol-1-yl)-3-methoxyphenyl)-4-(3-chloroazetidin-1-yl)-7-phenyl-6,7-dihydro-5H-cyclopenta[d]pyrimidin-2-amine], for which the IC50 is 0.0015 to 0.0099 µM.
As to `CCNc1nc(Nc2ccc(-n3cnc(Cl)c3)c(OC)c2)nc2c1COCC2c1ccc(C(F)(F)F)cc1` (stereo not shown) [Example 118A, N2-(4-(4-chloro-1H-imidazol-1-yl)-3-methoxyphenyl)-N4-ethyl-8-(4-(trifluoromethyl)phenyl)-7,8-dihydro-5H-pyrano[4,3-d]pyrimidine-2,4-diamine], the IC50 lay in the range of 0.0015 to 0.0099 µM.
For `COc1cc(Nc2nc3c(c(N4CC=C(F)CC4)n2)CCC3c2ccc(F)cc2)ccc1-n1cnc(Cl)c1` (stereo not shown) [Example 40A, N-(4-(4-chloro-1H-imidazol-1-yl)-3-methoxyphenyl)-4-(4-fluoro-5,6-dihydropyridin-1(2H)-yl)-7-(4-fluorophenyl)-6,7-dihydro-5H-cyclopenta[d]pyrimidin-2-amine], the IC50 was in the range of 0.0015 to 0.0099 µM.
For `COc1cc(Nc2nc3c(c(N4CCCC4C)n2)CCC3c2ccc(F)cc2)ccc1-n1cnc(Cl)c1` (single isomer, unassigned) [Example 20A, N-(4-(4-chloro-1H-imidazol-1-yl)-3-methoxyphenyl)-7-(4-fluorophenyl)-4-(2-methylpyrrolidin-1-yl)-6,7-dihydro-5H-cyclopenta[d]pyrimidin-2-amine], the IC50 was 0.0015 to 0.0099 µM.
Consider `COc1cc(Nc2nc3c(c(N4CCC(N(C)C)C4)n2)CCC3c2ccc(F)cc2)ccc1-n1cnc(Cl)c1` (single isomer, unassigned) [Example 29B, N-(4-(4-chloro-1H-imidazol-1-yl)-3-methoxyphenyl)-4-(3-(dimethylamino)pyrrolidin-1-yl)-7-(4-fluorophenyl)-6,7-dihydro-5H-cyclopenta[d]pyrimidin-2-amine], for which the IC50 was 0.01 to 0.1 µM.
In the case of `CNc1nc(Nc2ccc(-n3ncnc3C)c(F)c2)nc2c1CCC2c1ccccc1` (single isomer, unassigned) [Example 3A, N^2-(3-fluoro-4-(5-methyl-1H-1,2,4-triazol-1-yl)phenyl)-N^4-methyl-7-phenyl-6,7-dihydro-5H-cyclopenta[d]pyrimidine-2,4-diamine], the IC50 fell in the range of 0.0015 to 0.0099 µM.

The same experiment, now with this note: H4 APP751 SWE clone 8.20 cells, 19 h incubation; read-out: Activity Rating (Aβ42 cellular IC50), numeric value.
As for `COc1cc(Nc2nc3c(c(N4CC(C)(OC)C4)n2)CCC3c2ccc(F)cc2)ccc1-n1cnc(C)n1` (stereo not shown) [Example 192A, 7-(4-fluorophenyl)-4-(3-methoxy-3-methylazetidin-1-yl)-N-(3-methoxy-4-(3-methyl-1H-1,2,4-triazol-1-yl)phenyl)-6,7-dihydro-5H-cyclopenta[d]pyrimidin-2-amine], the IC50 is 0.17 µM.
